{
  "source": "patent US4880007A",
  "about": "“Contrast agent for NMR scanning” (Amersham International PLC, priority 1985, dated 1989)",
  "key": {"[1]": {"assay": "Binding of ligands to hydroxy apatite, ^31 P NMR study", "experimental": "(§1) 1 ml of hydroxy apatite solution 250 mg/ml in water was used for all the binding assays to described.\nThe solid from 1 ml of hydroxy apatite solution was isolated by centrifugation and the supernatant removed. 0.41 ml of a 0.1M solution of ligand at pH 7.5±0.1 were than added and the solid resuspended. The solid was once more spun down and the supernatant analysed by ^31 P NMR. This enabled the amount of bound phosphonate to be analysed."}, "[2]": {"assay": "Binding of chromium complexes to hydroxy apatite, by T1 relaxation measurement", "settings": "0.4 ml of 50 mM metal complex; HAP 250 mg/ml", "experimental": "as §1\nThe procedure above was followed but this time 0.4 ml of 50 mM metal complex solution was added and the solid resuspended. The supernatant was analysed by T1 using T1 relaxation measurements and the amount bound to hydroxy apatite calculated."}, "[3]": {"assay": "^153 Gd biodistribution, IV study in rats", "format": "in vivo, male rats", "settings": "for effect of added Ca^2+ or dimethylglucamine on bone uptake: Ca^2+ and dimethylglucamine added separately to aqueous solutions; for Bladder & Urine / Blood / Bone / Carcass / Injection Site / Kidneys / Liver & Spleen / Lung / Muscle / Ratio Bone/Blood / Ratio Bone/Liver & Spleen / Ratio Bone/Muscle / Stomach & Gut / usefulness as bone scanning / bone-seeking agent: rat, IV, two hours post injection", "excerpt": "This example uses ^153 Gd to compare the biodistribution properties of various complexes in rats.\nUsing ^153 Gd, a comparison was made of certain properties of aqueous \"solutions\" of\nThe biodistribution data there reported were obtained by means of an IV study in male rats which were sacrified two hours post injection. % activity per organ is given, together with ratios of bone to organ.\nIt is known that Ca^2+ can bind to di- and poly-phosphonates, and that this is one reason why these materials are toxic. It is also known that dimethylglucamine can be used to solubilize complexes of this kind."}, "[4]": {"assay": "Solubility / precipitation of Gd complexes", "format": "physicochemical", "experimental": "Equal volumes of 1 mM methylene diphosphonic acid and 0.5 mM Gd^3+ were used to prepare a complex designated Gd.MDP.\nEqual volumes of 10 mM ethane-1-hydroxy-1,1-diphosphonic acid and 5 mM Gd^3+ were used to prepare a complex designated Gd.EHDP."}, "[5]": {"settings": "ligand 0.1M, 0.41 ml, pH 7.5±0.1, HAP 250 mg/ml, ^31 P NMR"}},
  "data": [
    {"smiles": "O=P(O)(O)CN(CCO)CP(=O)(O)O", "note": "[AEDMP, Amino ethanol dimethylene phosphonate]", "values": [
      {"measurement": "% Bound to HAP", "setting": "[1]; [5]", "value": 50.9, "unit": "%"}
    ]},
    {"smiles": "O=C(O)CCCCCN(CP(=O)(O)O)CP(=O)(O)O", "note": "[AHADMP, 6-amino hexanoic acid dimethylene phosphonate]", "values": [
      {"measurement": "% Bound to HAP", "setting": "[1]; [5]", "value": 89.7, "unit": "%"}
    ]},
    {"smiles": "O=P(O)(O)CN(CCO)CP(=O)(O)O.O=P(O)(O)CN(CCO)CP(=O)(O)O.[Cr]", "note": "[Cr(AEDMP)2]", "values": [
      {"measurement": "% Bound", "setting": "[2]", "value": 96, "unit": "%"}
    ]},
    {"smiles": "O=C(O)CCCCCN(CP(=O)(O)O)CP(=O)(O)O.O=C(O)CCCCCN(CP(=O)(O)O)CP(=O)(O)O.[Cr]", "note": "[Cr(AHADMP)2]", "values": [
      {"measurement": "% Bound", "setting": "[2]", "value": 96, "unit": "%"}
    ]},
    {"smiles": "O=C(O)CCCN(CP(=O)(O)O)CP(=O)(O)O.O=C(O)CCCN(CP(=O)(O)O)CP(=O)(O)O.[Cr]", "note": "[Cr(GABADMP)2]", "values": [
      {"measurement": "% Bound", "setting": "[2]", "value": 90, "unit": "%"}
    ]},
    {"smiles": "O=C(O)CN(CP(=O)(O)O)CP(=O)(O)O.O=C(O)CN(CP(=O)(O)O)CP(=O)(O)O.[Cr]", "note": "[Cr(GDMP)2]", "values": [
      {"measurement": "% Bound", "setting": "[2]", "value": 80, "unit": "%"}
    ]},
    {"smiles": "O=P(O)(O)CN(Cc1cccc(CN(CP(=O)(O)O)CP(=O)(O)O)c1)CP(=O)(O)O.[Cr]", "note": "[CrMXDTMP]", "values": [
      {"measurement": "% Bound", "setting": "[2]", "value": 96, "unit": "%"}
    ]},
    {"smiles": "O=C(O)CCCN(CP(=O)(O)O)CP(=O)(O)O", "note": "[GABADMP, Gamma amino butyric acid dimethylene phosphonate]", "values": [
      {"measurement": "% Bound to HAP", "setting": "[1]; [5]", "value": 77.8, "unit": "%"}
    ]},
    {"smiles": "O=C(O)CN(CP(=O)(O)O)CP(=O)(O)O", "note": "[GDMP, Glycine dimethylene phosphonate]", "values": [
      {"measurement": "% Bound to HAP", "setting": "[1]; pH 7.5", "value": 88.2, "unit": "%"}
    ]},
    {"smiles": "O=P(O)(O)CN(CCN(CP(=O)(O)O)CP(=O)(O)O)CP(=O)(O)O.[Gd]", "note": "[Gd.EDTMP]", "values": [
      {"measurement": "effect of added Ca^2+ or dimethylglucamine on bone uptake", "setting": "[3]", "value": "neither addition had a significant effect"},
      {"measurement": "Bladder & Urine", "setting": "[3]", "value": 45.8, "unit": "% activity per organ"},
      {"measurement": "Blood", "setting": "[3]", "value": 0.6, "unit": "% activity per organ"},
      {"measurement": "Bone", "setting": "[3]", "value": 45.2, "unit": "% activity per organ"},
      {"measurement": "Carcass", "setting": "[3]", "value": 3.5, "unit": "% activity per organ"},
      {"measurement": "Injection Site", "setting": "[3]", "value": 2.1, "unit": "% activity per organ"},
      {"measurement": "Kidneys", "setting": "[3]", "value": 0.4, "unit": "% activity per organ"},
      {"measurement": "Liver & Spleen", "setting": "[3]", "value": 1.4, "unit": "% activity per organ"},
      {"measurement": "Lung", "setting": "[3]", "value": 0.1, "unit": "% activity per organ"},
      {"measurement": "Muscle", "setting": "[3]", "value": 1.1, "unit": "% activity per organ"},
      {"measurement": "Ratio Bone/Blood", "setting": "[3]", "value": 173.0},
      {"measurement": "Ratio Bone/Liver & Spleen", "setting": "[3]", "value": 35.2},
      {"measurement": "Ratio Bone/Muscle", "setting": "[3]", "value": 491.2},
      {"measurement": "Stomach & Gut", "setting": "[3]", "value": 1.9, "unit": "% activity per organ"},
      {"measurement": "usefulness as bone scanning / bone-seeking agent", "setting": "[3]", "value": "good bone-seeking agent"}
    ]},
    {"smiles": "CC(O)(P(=O)(O)O)P(=O)(O)O.[Gd]", "note": "[Gd.EHDP]", "values": [
      {"measurement": "effect of added Ca^2+ or dimethylglucamine on bone uptake", "setting": "[3]", "value": "neither addition had a significant effect"},
      {"measurement": "Bladder & Urine", "setting": "[3]", "value": 24.0, "unit": "% activity per organ"},
      {"measurement": "Blood", "setting": "[3]", "value": 21.45, "unit": "% activity per organ"},
      {"measurement": "Bone", "setting": "[3]", "value": 22.64, "unit": "% activity per organ"},
      {"measurement": "Carcass", "setting": "[3]", "value": 0.01, "unit": "% activity per organ"},
      {"measurement": "Injection Site", "setting": "[3]", "value": 2.91, "unit": "% activity per organ"},
      {"measurement": "Kidneys", "setting": "[3]", "value": 1.05, "unit": "% activity per organ"},
      {"measurement": "Liver & Spleen", "setting": "[3]", "value": 11.29, "unit": "% activity per organ"},
      {"measurement": "Lung", "setting": "[3]", "value": 1.55, "unit": "% activity per organ"},
      {"measurement": "Muscle", "setting": "[3]", "value": 13.8, "unit": "% activity per organ"},
      {"measurement": "Ratio Bone/Blood", "setting": "[3]", "value": 1.24},
      {"measurement": "Ratio Bone/Liver & Spleen", "setting": "[3]", "value": 2.04},
      {"measurement": "Ratio Bone/Muscle", "setting": "[3]", "value": 14.07},
      {"measurement": "Stomach & Gut", "setting": "[3]", "value": 4.21, "unit": "% activity per organ"},
      {"measurement": "usefulness as bone scanning / bone-seeking agent", "setting": "[3]", "value": "not useful as bone scanning agents"},
      {"measurement": "pH needed to avoid precipitation", "setting": "[4]; equal volumes 10 mM ligand and 5 mM Gd^3+", "value": "above 7"}
    ]},
    {"smiles": "O=P(O)(O)CP(=O)(O)O.[Gd]", "note": "[Gd.MDP]", "values": [
      {"measurement": "Bladder & Urine", "setting": "[3]", "value": 1.0, "unit": "% activity per organ"},
      {"measurement": "Blood", "setting": "[3]", "value": 0.1, "unit": "% activity per organ"},
      {"measurement": "Bone", "setting": "[3]", "value": 3.1, "unit": "% activity per organ"},
      {"measurement": "Carcass", "setting": "[3]", "value": 0.7, "unit": "% activity per organ"},
      {"measurement": "Injection Site", "setting": "[3]", "value": 0.5, "unit": "% activity per organ"},
      {"measurement": "Kidneys", "setting": "[3]", "value": 0.3, "unit": "% activity per organ"},
      {"measurement": "Liver & Spleen", "setting": "[3]", "value": 93.9, "unit": "% activity per organ"},
      {"measurement": "Lung", "setting": "[3]", "value": 0.4, "unit": "% activity per organ"},
      {"measurement": "Muscle", "setting": "[3]", "value": 0.3, "unit": "% activity per organ"},
      {"measurement": "Ratio Bone/Blood", "setting": "[3]", "value": 33.2},
      {"measurement": "Ratio Bone/Liver & Spleen", "setting": "[3]", "value": 0.0},
      {"measurement": "Ratio Bone/Muscle", "setting": "[3]", "value": 80},
      {"measurement": "Stomach & Gut", "setting": "[3]", "value": 0.0, "unit": "% activity per organ"},
      {"measurement": "usefulness as bone scanning / bone-seeking agent", "setting": "[3]", "value": "not useful as bone scanning agents"},
      {"measurement": "solubility", "setting": "[4]; around physiological pH's", "value": "poor solubility properties"}
    ]},
    {"smiles": "O=P(O)(O)CN(Cc1cccc(CN(CP(=O)(O)O)CP(=O)(O)O)c1)CP(=O)(O)O", "note": "[MXDTMP, Meta-xylene diamine tetramethylene phosphonate]", "values": [
      {"measurement": "% Bound to HAP", "setting": "[1]; [5]", "value": 84.1, "unit": "%"}
    ]},
    {"smiles": "O=P(O)(O)CN(Cc1ccc(CN(CP(=O)(O)O)CP(=O)(O)O)cc1)CP(=O)(O)O", "note": "[PXDTMP, Para-xylene diamine tetramethylene phosphonate]", "values": [
      {"measurement": "% Bound to HAP", "setting": "[1]; [5]", "value": 88.0, "unit": "%"}
    ]},
    {"smiles": "[153Gd+3].[Cl-].[Cl-].[Cl-]", "note": "[^153 Gd.Cl3]", "values": [
      {"measurement": "Bladder & Urine", "setting": "[3]", "value": 12.5, "unit": "% activity per organ"},
      {"measurement": "Blood", "setting": "[3]", "value": 3.7, "unit": "% activity per organ"},
      {"measurement": "Bone", "setting": "[3]", "value": 38.6, "unit": "% activity per organ"},
      {"measurement": "Carcass", "setting": "[3]", "value": 1.8, "unit": "% activity per organ"},
      {"measurement": "Injection Site", "setting": "[3]", "value": 3.4, "unit": "% activity per organ"},
      {"measurement": "Kidneys", "setting": "[3]", "value": 2.5, "unit": "% activity per organ"},
      {"measurement": "Liver & Spleen", "setting": "[3]", "value": 32.5, "unit": "% activity per organ"},
      {"measurement": "Lung", "setting": "[3]", "value": 0.6, "unit": "% activity per organ"},
      {"measurement": "Muscle", "setting": "[3]", "value": 4.0, "unit": "% activity per organ"},
      {"measurement": "Ratio Bone/Blood", "setting": "[3]", "value": 12.2},
      {"measurement": "Ratio Bone/Liver & Spleen", "setting": "[3]", "value": 1.1},
      {"measurement": "Ratio Bone/Muscle", "setting": "[3]", "value": 83},
      {"measurement": "Stomach & Gut", "setting": "[3]", "value": 3.9, "unit": "% activity per organ"}
    ]}
  ]
}
